Assay results from patent US20240158446A1, “CYCLIC COMPOUND HAVING SELECTIVE INHIBITORY ACTION ON KRAS OVER HRAS AND NRAS” (CHUGAI SEIYAKU KABUSHIKI KAISHA, priority 2021, published 2024).
Like-named read-outs stand apart in the source and are kept apart here. *1 amine or outer side, *2 acyl side, *3 side chain or, on linkers, in order; H or OH if unused. Where a SMILES comes first, the peptide text is derived from it. Bridges are numbered along the chain shown (N, C = ends). [ ]: non-standard residue; d: D form. The star is where a group is joined. hPhe(3,5-F2-4-CF3) = N[C@@H](CCc1cc(F)c(C(F)(F)F)c(F)c1)C(=O)O; hPhe(3-Cl-4-CF3) = N[C@@H](CCc1ccc(C(F)(F)F)c(Cl)c1)C(=O)O; NPrPhe(4-CF3) = CCCN[C@@H](Cc1ccc(C(F)(F)F)cc1)C(=O)O; X10 = C=CCN([C@@H](Cc1ccc(C)cc1)C(=O)[*:2])[*:1]; NMePhe(4-Me) = CN[C@@H](Cc1ccc(C)cc1)C(=O)O; NMeGly(cPent) = CN[C@H](C(=O)O)C1CCCC1; NMeD = CN[C@@H](CC(=O)O)C(=O)O; NMeL = CN[C@@H](CC(C)C)C(=O)O; NMeS = CN[C@@H](CO)C(=O)O; Iva = CC[C@](C)(N)C(=O)O; Morpholide = C1CN(*)CCO1; Ac5c = NC1(C(=O)O)CCCC1; Aze = O=C(O)[C@@H]1CCN1; Ac4c = NC1(C(=O)O)CCC1; Sar = CNCC(=O)O

Key:
[1] = target: GDP-bound HRAS wild-type protein (Homo sapiens, UniProt P01112); assay: Binding to HRAS by surface plasmon resonance (SPR), Single Cycle Kinetics; details: for HRAS/KRAS (ratio of KD value with respect to HRAS to KD value with respect to KRAS) / HRAS/KRAS (ratio of KD value for HRAS to KD value for KRAS): SPR, GDP-bound HRAS wild-type protein vs GDP-bound KRAS wild-type protein; for HRAS/KRAS (ratio of KD value with respect to GDP-bound HRAS wild-type protein to KD value with respect to KRAS): SPR KD ratio HRAS/KRAS, class symbols
[2] = target: GDP-bound NRAS wild-type protein (Homo sapiens, UniProt P01111); assay: Binding to NRAS by surface plasmon resonance (SPR), Single Cycle Kinetics; details: for NRAS/KRAS (ratio of KD value with respect to NRAS to KD value with respect to KRAS) / NRAS/KRAS (ratio of KD value for NRAS to KD value for KRAS): SPR, GDP-bound NRAS wild-type protein vs GDP-bound KRAS wild-type protein; for NRAS/KRAS (ratio of KD value with respect to GDP-bound NRAS wild-type protein to KD value with respect to KRAS): SPR KD ratio NRAS/KRAS, class symbols
[3] = target: GDP-bound KRAS wild-type protein (Homo sapiens, UniProt P01116); assay: Binding to KRAS by surface plasmon resonance (SPR), Single Cycle Kinetics; details: GDP-bound KRAS wild-type protein, read-out: KRAS KD
[4] = SPR Single Cycle Kinetics, 1:1 binding model

GDP-bound HRAS wild-type protein, sequence (P01112 whole entry): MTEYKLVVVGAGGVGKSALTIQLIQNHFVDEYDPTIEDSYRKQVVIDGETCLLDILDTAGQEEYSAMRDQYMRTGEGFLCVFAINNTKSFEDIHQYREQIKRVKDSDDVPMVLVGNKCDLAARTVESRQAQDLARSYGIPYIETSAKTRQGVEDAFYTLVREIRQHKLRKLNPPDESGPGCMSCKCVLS
GDP-bound KRAS wild-type protein, sequence (P01116 whole entry): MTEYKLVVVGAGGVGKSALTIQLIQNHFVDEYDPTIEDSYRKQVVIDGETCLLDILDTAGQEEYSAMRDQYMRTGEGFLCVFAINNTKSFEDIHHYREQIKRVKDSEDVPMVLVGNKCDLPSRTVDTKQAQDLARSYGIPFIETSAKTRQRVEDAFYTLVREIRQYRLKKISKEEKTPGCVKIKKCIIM
GDP-bound NRAS wild-type protein, sequence (P01111 whole entry): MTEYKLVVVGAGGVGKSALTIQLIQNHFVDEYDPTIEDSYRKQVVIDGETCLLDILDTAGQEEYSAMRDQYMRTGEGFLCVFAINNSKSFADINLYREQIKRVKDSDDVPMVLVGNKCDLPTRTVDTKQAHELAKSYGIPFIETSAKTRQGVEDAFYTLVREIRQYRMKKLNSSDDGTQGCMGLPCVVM

| Kd [3, 4] | SMILES | HRAS/KRAS (ratio of KD value with respect to HRAS to KD value with respect to KRAS) [1] | NRAS/KRAS (ratio of KD value with respect to NRAS to KD value with respect to KRAS) [2] | HRAS/KRAS (ratio of KD value with respect to GDP-bound HRAS wild-type protein to KD value with respect to KRAS) [1] | NRAS/KRAS (ratio of KD value with respect to GDP-bound NRAS wild-type protein to KD value with respect to KRAS) [2] | HRAS/KRAS (ratio of KD value for HRAS to KD value for KRAS) [1] | NRAS/KRAS (ratio of KD value for NRAS to KD value for KRAS) [2] | also measured |
| --- | --- | --- | --- | --- | --- | --- | --- | --- |
| 0.56 nM | CCCN1C(=O)[C@@H]2CCN2C(=O)CN(C)C(=O)[C@H]([C@@H](C)CC)NC(=O)[C@H](CC(C)C)N(C)C(=O)C[C@@H](C(=O)N2CCOCC2)N(C)C(=O)[C@H](C2CCCC2)N(C)C(=O)[C@](C)(CC)NC(=O)[C@@H]2CCCN2C(=O)[C@H](CCc2cc(F)c(C(F)(F)F)c(F)c2)NC(=O)CN(C)C(=O)[C@@H]1Cc1ccc(C(F)(F)F)cc1 [PP0790] ([NMeL]I[Sar][Aze][NPrPhe(4-CF3)][Sar][hPhe(3,5-F2-4-CF3)]P[Iva][NMeGly(cPent)][NMeD]-Morpholide; lactam N-11) | B (a compound having 3 or more and less than 10 is denoted as B) | C (A compound having a KD ratio of 0.1 or more and less than 3 is denoted as C) | – | – | – | – | – |
| 1.2 nM | CCO[C@@H]1C[C@H]2C(=O)NC3(CCCC3)C(=O)N(C)[C@@H](C3CCCC3)C(=O)N(C)[C@H](C(=O)N3CCOCC3)CC(=O)N(C)[C@@H](CC(C)C)C(=O)N[C@@H]([C@@H](C)CC)C(=O)N(C)CC(=O)N(C)[C@H]3CCCCCN(C3=O)[C@@H](Cc3ccc(C(F)(F)F)cc3)C(=O)N(C)CC(=O)N[C@@H](CCc3cc(F)c(C(F)(F)F)c(F)c3)C(=O)N2C1 [PP0492] | B (a compound having 3 or more and less than 10 is denoted as B) | B (a compound having 3 or more and less than 10 is denoted as B) | – | – | – | – | – |
| 0.072 nM | CCCN1C(=O)[C@@H]2CCN2C(=O)CN(C)C(=O)[C@H]([C@@H](C)CC)NC(=O)[C@H](CC(C)C)N(C)C(=O)C[C@@H](C(=O)N(C)C)N(C)C(=O)[C@H](C2CCCC2)N(C)C(=O)C2(CCC2)NC(=O)[C@@H]2CCCN2C(=O)[C@H](CCc2ccc(C(F)(F)F)c(Cl)c2)NC(=O)CN(C)C(=O)[C@@H]1Cc1ccc(C(F)(F)F)cc1 [PP0441] ([NMeL]I[Sar][Aze][NPrPhe(4-CF3)][Sar][hPhe(3-Cl-4-CF3)]P[Ac4c][NMeGly(cPent)][NMeD]-NMe2; lactam N-11) | C (A compound having a KD ratio of 0.1 or more and less than 3 is denoted as C) | C (A compound having a KD ratio of 0.1 or more and less than 3 is denoted as C) | – | – | – | – | – |
| 2 nM | CCC[C@H]1C(=O)N[C@@H]([C@@H](C)CC)C(=O)N(C)CC(=O)N(C)[C@H]2C/C=C\CCN(C2=O)[C@@H](Cc2ccc(C(F)(F)F)cc2)C(=O)N(C)CC(=O)N[C@@H](CCc2ccc3c(C)c(C)n(C)c3c2)C(=O)N2C[C@H](OCC)C[C@H]2C(=O)NC2(CC(C)(C)C2)C(=O)N(C)[C@@H](C2CCCC2)C(=O)N(C)[C@H](C(=O)N(C)C)CC(=O)N1C [PP2893] | – | – | A (a compound having 10 or more and less than 20 is denoted as A) | A (a compound having 10 or more and less than 20 is denoted as A) | – | – | – |
| – | CCC[C@H]1C(=O)N[C@@H](C(CC)CC)C(=O)N(C)CC(=O)N(C)[C@H]2C/C=C\CCN(C2=O)[C@@H](Cc2ccc(C)cc2)C(=O)N(C)CC(=O)N[C@@H](CCc2ccc(C(F)(F)F)c(Cl)c2)C(=O)N2C[C@H](OCC)C[C@H]2C(=O)NC2(CC(C)(C)C2)C(=O)N(C)[C@@H](CC(C)(C)C)C(=O)N(C)[C@H](C(=O)N(C)C)CC(=O)N1C [PP2207] | – | – | – | – | A (a compound having 10 or more and less than 20 is denoted as A) | A (a compound having 10 or more and less than 20 is denoted as A) | Kd ([3]; SPR, Single Cycle Kinetics): 0.79 nM |
| – | CC[C@H](C)[C@@H]1NC(=O)[C@H](CC2CC2)N(C)C(=O)C[C@@H](C(=O)N2CCCC2)N(C)C(=O)[C@H](C2CCCC2)N(C)C(=O)C2(CCCC2)NC(=O)[C@@H]2C[C@@H](F)CN2C(=O)[C@H](CCc2cc(F)c(C(F)(F)F)c(F)c2)NC(=O)CN(C)C(=O)[C@H](Cc2ccc(C(F)(F)F)cc2)N2CC/C=C\C[C@@H](C2=O)N(C)C(=O)CN(C)C1=O [PP1503] | – | – | – | – | – | – | HRAS/KRAS (ratio of KD value for HRAS to KD value for KRAS) ([1]; KD ratio class): A (a compound having 10 or more and less than 20 is denoted as A); NRAS/KRAS (ratio of KD value for NRAS to KD value for KRAS) ([2]; KD ratio class): A (a compound having 10 or more and less than 20 is denoted as A); Kd ([3]; SPR, Single Cycle Kinetics, 1:1 binding model): 0.11 nM |
| 0.52 nM | C#CC[C@H]1C(=O)N[C@@H]([C@@H](C)CC)C(=O)N(C)CC(=O)N(C)[C@H]2C/C=C\CCN(C2=O)[C@@H](Cc2ccc(C(F)(F)F)cc2)C(=O)N(C)CC(=O)N[C@@H](CCc2ccc(C(F)(F)F)c(OC)c2)C(=O)N2CC[C@H]2C(=O)NC2(CCC2)C(=O)N(C)[C@@H](C2CCCC2)C(=O)N(C)[C@H](C(=O)N(C)C)CC(=O)N1C [PP2911] | – | – | B (a compound having 3 or more and less than 10 is denoted as B) | A (a compound having 10 or more and less than 20 is denoted as A) | – | – | – |
| 0.17 nM | CCC(CC)[C@H]1C(=O)N(C)[C@H](C(=O)N(C)C)CC(=O)N(C)[C@H]2CCC/C=C/c3ccc(cc3)C[C@@H](C(=O)N(C)CC(=O)N[C@@H](CCc3cc(F)c(C(F)(F)F)c(F)c3)C(=O)N3CCC[C@H]3C(=O)NC3(CC(C)(C)C3)C(=O)N1C)N1CC/C=C\C[C@@H](C1=O)N(C)C(=O)CN(C)C(=O)[C@H]([C@@H](C)CC)NC2=O [PP2600] | – | – | A (a compound having 10 or more and less than 20 is denoted as A) | A (a compound having 10 or more and less than 20 is denoted as A) | – | – | – |
| – | C#CC[C@H]1C(=O)N[C@@H]([C@@H](C)CC)C(=O)N(C)CC(=O)N(C)[C@H]2C/C=C\CCN(C2=O)[C@@H](Cc2ccc(C(F)(F)F)cc2)C(=O)N(C)CC(=O)N[C@@H](CCc2cc(F)c(C(F)(F)F)c(F)c2)C(=O)N2C[C@@H](C)C[C@H]2C(=O)NC2(CC(C)(C)C2)C(=O)N(C)[C@@H](C2CCCC2)C(=O)N(C)[C@H](C(=O)N(C)CCC)CC(=O)N1C [PP2076] | – | – | – | – | A (a compound having 10 or more and less than 20 is denoted as A) | A (a compound having 10 or more and less than 20 is denoted as A) | Kd ([3]; SPR, Single Cycle Kinetics): 0.39 nM |
| 7.6 nM | CC[C@H](C)[C@@H]1NC(=O)[C@H](CC(C)C)N(C)C(=O)C[C@@H](C(=O)N2CCOCC2)N(C)C(=O)[C@H](C2CCCC2)N(C)C(=O)C2(CCCC2)NC(=O)[C@@H]2CCCN2C(=O)[C@H](CCc2ccc(C(F)(F)F)c(Cl)c2)NC(=O)CN(C)C(=O)[C@H](Cc2ccc(C)cc2)N(C)C(=O)[C@H](CO)N(C)C(=O)CN(C)C1=O [PP0037] ([NMeL]I[Sar][NMeS][NMePhe(4-Me)][Sar][hPhe(3-Cl-4-CF3)]P[Ac5c][NMeGly(cPent)][NMeD]-Morpholide; lactam N-11) | – | – | – | – | C (A compound having a KD ratio of 0.1 or more and less than 3 is denoted as C) | C (A compound having a KD ratio of 0.1 or more and less than 3 is denoted as C) | – |
| 0.019 nM | CC[C@H](C)[C@@H]1NC(=O)[C@H](C)N(C)C(=O)C[C@@H](C(=O)N(C)C)N(C)C(=O)[C@H](C2CCCC2)N(C)C(=O)C2(CCCC2)NC(=O)[C@@H]2CC(F)(F)CN2C(=O)[C@H](CCc2cc(F)c(C(F)(F)F)c(F)c2)NC(=O)CN(C)C(=O)[C@H](Cc2ccc(C(F)(F)F)cc2)N2CCCC[C@@H](C2=O)N(C)C(=O)CN(C)C1=O [PP0583] | C (A compound having a KD ratio of 0.1 or more and less than 3 is denoted as C) | C (A compound having a KD ratio of 0.1 or more and less than 3 is denoted as C) | – | – | – | – | – |
| 0.19 nM | C=CCN1C(=O)CN(C)C(=O)CN(C)C(=O)[C@H]([C@@H](C)CC)NC(=O)[C@H](CC(C)C)N(C)C(=O)C[C@@H](C(=O)N2CCOCC2)N(C)C(=O)[C@H](C2CCCC2)N(C)C(=O)C2(CCCC2)NC(=O)[C@@H]2CCCN2C(=O)[C@H](CCc2ccc(C(F)(F)F)c(Cl)c2)NC(=O)CN(C)C(=O)[C@@H]1Cc1ccc(C)cc1 [PP0100] ([NMeL]I[Sar][Sar][X10][Sar][hPhe(3-Cl-4-CF3)]P[Ac5c][NMeGly(cPent)][NMeD]-Morpholide; lactam N-11) | – | – | – | – | C (A compound having a KD ratio of 0.1 or more and less than 3 is denoted as C) | B (a compound having 3 or more and less than 10 is denoted as B) | – |
| 1.2 nM | CCCN(C)C(=O)[C@@H]1CC(=O)N(C)[C@@H](CC)C(=O)N[C@@H]([C@@H](C)CC)C(=O)N(C)CC(=O)N(C)[C@H]2C/C=C\CCN(C2=O)[C@@H](Cc2ccc(C(F)(F)F)cc2)C(=O)N(C)CC(=O)N[C@@H](CCc2cc(F)c(C(F)(F)F)c(F)c2)C(=O)N2CC[C@H]2C(=O)NC2(CCC2)C(=O)N(C)[C@@H](C2CCCC2)C(=O)N1C [PP2915] | – | – | A (a compound having 10 or more and less than 20 is denoted as A) | A (a compound having 10 or more and less than 20 is denoted as A) | – | – | – |
